Assay results reported in patent US8916604B2, “Compositions and methods for epigenetic modification of nucleic acid sequences” (Rutgers, The State University of New Jersey, priority 2011, dated 2014).

Experiments:
Assay type in all cases: cell-based, mouse
[1] = test system: first 5 CpGs of Nrf2 gene promoter; test: Methylated DNA immunoprecipitation (MeDIP) in TRAMP C1 cells
Description: The DIM used in the study contains approximately 98% of DIM purchased from Sigma-Aldrich t St. Louis, Mo., USA), TRAMP C1 cells (provided by Dr. Barbara Foster, Department of Pharmacology and Therapeutics, Roswell Park Cancer institute, Buffalo. NY), originally derived from TRAMP prostate tumor, were cultured in Dulbecco's Modified Eagle's Medium (Invitrogen Corp., Carlsbad, Calif. U.S.A.) supplemented with 10% (V/V) fetal bovine serum (FBS) (Invitrogen Corp., Grand Island, N.Y., U.S.A.), penicillin 100 U/ml, and streptomycin 100 μg/ml (Invitrogen Corp., Grand Island, N.Y., U.S.A.), Cells were maintained in a humidified incubator with 5% CO2 at 37° C. Cells were seeded in 10 cm plates for 24 h and then treated with 0.1% DMSO (control) or different concentrations of DIM in 1% FBS containing medium for 5 days. The medium was changed every 2 days (20),
Genomic DNA (8 μg each) extracted from control and DIM treated TRAMP C1 cells were used for the MeDIP analysis, analogous to other chromatin immuno-precipitation (ChIP) analysis. The DNAs were adjusted to 150 μl using TE buffer in DNA. LoBind tubes. DNAs were fragmented by sonication on ice-water using a Bioruptor sonicator (Diagnode Inc., Sparta, N.J., U.S.A.) and the size of sheared DNA fragment (around 300 to 500 bp) was checked by gel electrophoresis. […]

[2] = test system: DNMT1; test: qPCR in TRAMP C1 cells; conditions: 5 μM and 10 μM, p<0.05
Description: (§1) The DIM used in the study contains approximately 98% of DIM purchased from Sigma-Aldrich t St. Louis, Mo., USA), TRAMP C1 cells (provided by Dr. Barbara Foster, Department of Pharmacology and Therapeutics, Roswell Park Cancer institute, Buffalo. NY), originally derived from TRAMP prostate tumor, were cultured in Dulbecco's Modified Eagle's Medium (Invitrogen Corp., Carlsbad, Calif. U.S.A.) supplemented with 10% (V/V) fetal bovine serum (FBS) (Invitrogen Corp., Grand Island, N.Y., U.S.A.), penicillin 100 U/ml, and streptomycin 100 μg/ml (Invitrogen Corp., Grand Island, N.Y., U.S.A.), Cells were maintained in a humidified incubator with 5% CO2 at 37° C. Cells were seeded in 10 cm plates for 24 h and then treated with 0.1% DMSO (control) or different concentrations of DIM in 1% FBS containing medium for 5 days. The medium was changed every 2 days (20), Total RNA were extracted from DIM treated TRAMP C1 cells and were reversed transcribed. The primers, DNMT1, DNMT3a, DNMT3b, NQO1, HO-1, GSTm1, UGT1a1 and control β-actin of qPCR are listed in Table 5 (Integrated DNA. Technologies, Coralville, Iowa, U.S.A.), The qPCR reactions were carried out with 1 μl cDNA product, 50 nM of each primer, and Power SYBR Green master mix (Applied Biosystems, Foster City, Calif., U.S.A.) in 10 μl reactions. The reactions were performed using an ABI Prism 7900HT sequence detection system; specificity of amplification was verified by first-derivative inciting curve analysis using the ABI software (SDS 2.3, Applied Biosystems, Foster City, Calif., U.S.A.). Relative quantification of gene expression profile was calculated using a ΔΔCt method. (RQ manager, Applied Biosystems, Foster City, C. CA, U.S.A.) as we have performed previously (Barve et al., J Pharm Sci., 2008; 94: 4528-45). Three independent experiments were carried out showing similar results. The results are presented as mean±SD.

[3] = test system: DNMT3a; test: qPCR in TRAMP C1 cells; conditions: 5 μM, p<0.05
Description: as §1

[4] = test system: DNMT3b; test: qPCR in TRAMP C1 cells; conditions: 5 μM and 10 μM
Description: as §1

[5] = test system: GSTm1; test: qPCR in TRAMP C1 cells; conditions: 5 days
Description: as §1

[6] = test system: NQO1; test: qPCR in TRAMP C1 cells; conditions: 5 days
Description: as §1

[7] = test system: Nrf2; test: qPCR in TRAMP C1 cells; conditions: 5 days
Description: as §1

Compound: c1ccc2c(Cc3c[nH]c4ccccc34)c[nH]c2c1 [DIM, 3,3′-diindolylmethane]
- methylated DNA bound by anti-mecyt antibody [1]: reduced
- DNMT1 mRNA expression [2]: significantly suppressed
- DNMT3a mRNA expression [3]: suppressed
- DNMT3b mRNA expression [4]: suppressed
- GSTm1 mRNA expression [5]: enhanced
- NQO1 mRNA expression [6]: enhanced
- Nrf2 mRNA expression [7]: enhanced
